Measured values from ChEMBL document CHEMBL5649169 (ChemMedChem, 2018).

Columns and labels:
[1] = target: rRNA 2'-O-methyltransferase fibrillarin (Homo sapiens) (UniProt P22087); further: assay method not described here
[2] = target: ATP synthase F(0) complex subunit a (Homo sapiens) (UniProt P00846); further: assay method not described here
[3] = target: Small ribosomal subunit protein uS9 (Homo sapiens) (UniProt P62249); further: assay method not described here
[4] = target: Aurora kinase A (Homo sapiens) (UniProt O14965); further: assay method not described here
[5] = target: Heat shock protein beta-1 (Homo sapiens) (UniProt P04792); further: assay method not described here
[6] = target: Neutral amino acid transporter B(0) (Homo sapiens) (UniProt Q15758); further: assay method not described here
[7] = target: Serine/threonine-protein kinase MRCK gamma (Homo sapiens) (UniProt Q6DT37); further: assay method not described here
Serine/threonine-protein kinase MRCK gamma (Homo sapiens), sequence (Q6DT37 whole entry): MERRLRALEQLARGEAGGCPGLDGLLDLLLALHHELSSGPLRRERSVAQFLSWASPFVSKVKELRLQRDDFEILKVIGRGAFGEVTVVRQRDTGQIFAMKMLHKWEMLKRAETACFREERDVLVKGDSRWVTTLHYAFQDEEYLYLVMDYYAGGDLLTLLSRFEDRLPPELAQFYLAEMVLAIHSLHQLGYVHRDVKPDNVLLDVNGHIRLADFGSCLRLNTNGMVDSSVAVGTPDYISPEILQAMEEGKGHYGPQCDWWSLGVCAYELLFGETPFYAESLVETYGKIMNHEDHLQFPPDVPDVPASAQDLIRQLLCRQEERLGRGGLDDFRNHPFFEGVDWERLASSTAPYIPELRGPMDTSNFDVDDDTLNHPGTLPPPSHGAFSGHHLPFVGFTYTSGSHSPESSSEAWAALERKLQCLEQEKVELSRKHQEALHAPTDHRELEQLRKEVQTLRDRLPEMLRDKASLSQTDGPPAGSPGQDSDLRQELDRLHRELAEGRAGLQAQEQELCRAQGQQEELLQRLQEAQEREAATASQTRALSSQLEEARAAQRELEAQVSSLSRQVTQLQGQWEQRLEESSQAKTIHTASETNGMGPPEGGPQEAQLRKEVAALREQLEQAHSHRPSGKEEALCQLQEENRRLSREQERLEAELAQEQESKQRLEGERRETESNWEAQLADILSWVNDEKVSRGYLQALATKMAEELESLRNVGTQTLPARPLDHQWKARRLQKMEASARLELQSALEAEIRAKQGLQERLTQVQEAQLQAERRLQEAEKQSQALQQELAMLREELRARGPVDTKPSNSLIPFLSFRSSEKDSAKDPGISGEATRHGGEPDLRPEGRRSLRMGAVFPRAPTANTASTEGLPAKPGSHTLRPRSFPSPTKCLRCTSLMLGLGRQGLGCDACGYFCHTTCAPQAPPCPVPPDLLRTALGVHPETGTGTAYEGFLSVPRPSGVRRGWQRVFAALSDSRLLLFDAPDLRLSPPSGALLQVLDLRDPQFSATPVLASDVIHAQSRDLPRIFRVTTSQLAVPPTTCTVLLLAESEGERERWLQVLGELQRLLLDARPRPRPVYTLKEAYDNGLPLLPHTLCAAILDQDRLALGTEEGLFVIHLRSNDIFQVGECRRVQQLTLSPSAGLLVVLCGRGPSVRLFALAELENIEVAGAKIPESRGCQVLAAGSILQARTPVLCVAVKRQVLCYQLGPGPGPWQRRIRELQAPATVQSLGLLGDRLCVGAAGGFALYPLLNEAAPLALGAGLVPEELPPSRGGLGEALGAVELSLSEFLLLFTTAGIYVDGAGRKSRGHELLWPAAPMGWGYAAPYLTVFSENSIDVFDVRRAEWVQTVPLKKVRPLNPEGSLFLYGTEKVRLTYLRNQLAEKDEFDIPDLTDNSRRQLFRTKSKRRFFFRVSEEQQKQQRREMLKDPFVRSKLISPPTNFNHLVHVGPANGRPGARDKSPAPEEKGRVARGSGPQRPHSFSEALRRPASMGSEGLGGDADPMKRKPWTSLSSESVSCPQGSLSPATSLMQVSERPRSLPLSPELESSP

[8] = target: Actin-related protein 2/3 complex subunit 3 (Homo sapiens) (UniProt O15145); further: assay method not described here
[9] = target: Mitogen-activated protein kinase 3 (Homo sapiens) (UniProt P27361); further: assay method not described here
Mitogen-activated protein kinase 3 (Homo sapiens), sequence (P27361 whole entry): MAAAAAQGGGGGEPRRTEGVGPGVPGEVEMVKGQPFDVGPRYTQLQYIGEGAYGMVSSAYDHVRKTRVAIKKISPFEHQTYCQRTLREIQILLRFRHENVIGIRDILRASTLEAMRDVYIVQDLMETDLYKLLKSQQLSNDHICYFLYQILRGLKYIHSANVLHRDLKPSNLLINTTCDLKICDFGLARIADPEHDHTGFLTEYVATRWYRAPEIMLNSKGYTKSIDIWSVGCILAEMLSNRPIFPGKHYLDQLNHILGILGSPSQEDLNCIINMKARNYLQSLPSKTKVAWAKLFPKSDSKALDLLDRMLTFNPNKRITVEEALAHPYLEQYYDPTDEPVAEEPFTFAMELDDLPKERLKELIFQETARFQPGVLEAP

[10] = target: TRAF2 and NCK-interacting protein kinase (Homo sapiens) (UniProt Q9UKE5); further: assay method not described here
[11] = target: L-lactate dehydrogenase B chain (Homo sapiens) (UniProt P07195); further: assay method not described here
L-lactate dehydrogenase B chain (Homo sapiens), sequence (P07195 2-334 limits assumed): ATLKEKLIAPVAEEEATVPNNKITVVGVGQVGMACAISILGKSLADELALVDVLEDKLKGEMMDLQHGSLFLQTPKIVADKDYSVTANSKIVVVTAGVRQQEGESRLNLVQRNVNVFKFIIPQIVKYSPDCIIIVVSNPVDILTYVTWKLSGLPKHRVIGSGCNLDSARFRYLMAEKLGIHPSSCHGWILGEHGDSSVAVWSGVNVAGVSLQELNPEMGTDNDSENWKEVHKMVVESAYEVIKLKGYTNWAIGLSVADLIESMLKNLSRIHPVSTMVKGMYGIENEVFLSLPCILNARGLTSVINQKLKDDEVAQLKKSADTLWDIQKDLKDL

[12] = target: Importin-4 (Homo sapiens) (UniProt Q8TEX9); further: assay method not described here
[13] = target: Tricarboxylate transport protein, mitochondrial (Homo sapiens) (UniProt P53007); further: assay method not described here
[14] = target: Heterogeneous nuclear ribonucleoprotein U-like protein 1 (Homo sapiens) (UniProt Q9BUJ2); further: assay method not described here
[15] = target: Histone H1.0 (Homo sapiens) (UniProt P07305); further: assay method not described here
Histone H1.0 (Homo sapiens), sequence (P07305 whole entry, looked up): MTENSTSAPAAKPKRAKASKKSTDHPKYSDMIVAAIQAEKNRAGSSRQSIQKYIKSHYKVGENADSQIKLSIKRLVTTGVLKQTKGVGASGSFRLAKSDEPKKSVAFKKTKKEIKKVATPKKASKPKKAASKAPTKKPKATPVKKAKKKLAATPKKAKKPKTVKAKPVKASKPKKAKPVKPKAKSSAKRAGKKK

[16] = target: DnaJ homolog subfamily A member 3, mitochondrial (Homo sapiens) (UniProt Q96EY1); further: assay method not described here
Titin (Homo sapiens) = Titin (Homo sapiens) (UniProt Q8WZ42); further: assay method not described here
[17] = target: Aspartate aminotransferase, cytoplasmic (Homo sapiens) (UniProt P17174); further: assay method not described here
[18] = target: Glucose-6-phosphate 1-dehydrogenase (Homo sapiens) (UniProt P11413); further: assay method not described here
[19] = target: Translocon-associated protein subunit alpha (Homo sapiens) (UniProt P43307); further: assay method not described here
[20] = target: Mitogen-activated protein kinase 8 (Homo sapiens) (UniProt P45983); further: assay method not described here
[21] = target: Cyclin-dependent kinase-like 5 (Homo sapiens) (UniProt O76039); further: assay method not described here
[22] = target: Heat shock protein 105 kDa (Homo sapiens) (UniProt Q92598); further: assay method not described here
[23] = target: Mitochondrial 2-oxoglutarate/malate carrier protein (Homo sapiens) (UniProt Q02978); further: assay method not described here
Mitochondrial 2-oxoglutarate/malate carrier protein (Homo sapiens), sequence (Q02978 whole entry): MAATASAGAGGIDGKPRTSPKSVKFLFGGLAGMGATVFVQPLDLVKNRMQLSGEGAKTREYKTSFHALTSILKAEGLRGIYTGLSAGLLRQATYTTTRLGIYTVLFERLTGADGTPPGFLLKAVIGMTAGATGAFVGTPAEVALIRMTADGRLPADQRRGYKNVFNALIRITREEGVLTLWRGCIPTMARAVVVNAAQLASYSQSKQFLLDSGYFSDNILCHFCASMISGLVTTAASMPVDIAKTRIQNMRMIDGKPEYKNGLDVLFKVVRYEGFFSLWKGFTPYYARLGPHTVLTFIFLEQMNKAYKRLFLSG

[24] = target: Serine/threonine-protein kinase mTOR (Homo sapiens) (UniProt P42345); further: assay method not described here
[25] = target: Apoptosis-inducing factor 1, mitochondrial (Homo sapiens) (UniProt O95831); further: assay method not described here
[26] = target: Cilia- and flagella-associated protein 410 (Homo sapiens) (UniProt O43822); further: assay method not described here
[27] = target: Rho GDP-dissociation inhibitor 2 (Homo sapiens) (UniProt P52566); further: assay method not described here
Rho GDP-dissociation inhibitor 2 (Homo sapiens), sequence (P52566 whole entry): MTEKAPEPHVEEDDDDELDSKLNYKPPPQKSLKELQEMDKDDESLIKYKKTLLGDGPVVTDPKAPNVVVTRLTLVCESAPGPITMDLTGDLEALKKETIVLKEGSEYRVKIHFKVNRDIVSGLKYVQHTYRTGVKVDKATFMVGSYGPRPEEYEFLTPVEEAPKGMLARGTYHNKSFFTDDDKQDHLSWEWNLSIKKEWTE

[28] = target: Dopamine beta-hydroxylase (Homo sapiens) (UniProt P09172); further: assay method not described here
[29] = target: Telomere length regulation protein TEL2 homolog (Homo sapiens) (UniProt Q9Y4R8); further: assay method not described here
[30] = target: Heterogeneous nuclear ribonucleoprotein F (Homo sapiens) (UniProt P52597); further: assay method not described here
Heterogeneous nuclear ribonucleoprotein F (Homo sapiens), sequence (P52597 whole entry, the tested form may be a part): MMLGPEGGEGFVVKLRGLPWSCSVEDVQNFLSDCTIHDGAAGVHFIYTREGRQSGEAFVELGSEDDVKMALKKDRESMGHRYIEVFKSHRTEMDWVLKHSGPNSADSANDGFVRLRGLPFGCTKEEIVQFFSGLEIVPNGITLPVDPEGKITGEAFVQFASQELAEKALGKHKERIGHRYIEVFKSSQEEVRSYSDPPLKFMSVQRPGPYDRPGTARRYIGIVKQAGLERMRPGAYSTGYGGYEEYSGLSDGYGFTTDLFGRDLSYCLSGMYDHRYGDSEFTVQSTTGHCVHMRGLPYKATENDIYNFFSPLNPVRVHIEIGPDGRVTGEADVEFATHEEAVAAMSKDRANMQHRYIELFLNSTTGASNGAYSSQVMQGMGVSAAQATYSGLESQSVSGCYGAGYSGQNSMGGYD

[31] = target: AarF domain-containing protein kinase 1 (Homo sapiens) (UniProt Q86TW2); further: assay method not described here
[32] = target: Protein salvador homolog 1 (Homo sapiens) (UniProt Q9H4B6); further: assay method not described here
[33] = target: Cancer-related nucleoside-triphosphatase (Homo sapiens) (UniProt Q9BSD7); further: assay method not described here
[34] = target: Heterogeneous nuclear ribonucleoprotein A3 (Homo sapiens) (UniProt P51991); further: assay method not described here
[35] = target: SUMO-conjugating enzyme UBC9 (Homo sapiens) (UniProt P63279); further: assay method not described here
SUMO-conjugating enzyme UBC9 (Homo sapiens), sequence (P63279 whole entry): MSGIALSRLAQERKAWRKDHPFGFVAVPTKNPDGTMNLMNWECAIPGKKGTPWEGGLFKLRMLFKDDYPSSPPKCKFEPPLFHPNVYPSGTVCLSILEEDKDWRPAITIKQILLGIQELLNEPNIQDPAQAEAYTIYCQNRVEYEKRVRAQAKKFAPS

Myosin-9 (Homo sapiens) = Myosin-9 (Homo sapiens) (UniProt P35579); further: assay method not described here
Ephrin type-A receptor 4 = Ephrin type-A receptor 4 (Homo sapiens, UniProt P54764); assay: Inhibition of Nano Luc-fused full length C-terminal EPHA4 (unknown origin) expressed in HEK293T cells using NanoGlo as substrate incubated for 2 hrs in presence of tracer by NanoBRET assay; assay type: cell-based
[36] = target: Serine/threonine-protein kinase B-raf (Homo sapiens) (UniProt P15056); further: assay method not described here
Serine/threonine-protein kinase B-raf (Homo sapiens), sequence (P15056 whole entry): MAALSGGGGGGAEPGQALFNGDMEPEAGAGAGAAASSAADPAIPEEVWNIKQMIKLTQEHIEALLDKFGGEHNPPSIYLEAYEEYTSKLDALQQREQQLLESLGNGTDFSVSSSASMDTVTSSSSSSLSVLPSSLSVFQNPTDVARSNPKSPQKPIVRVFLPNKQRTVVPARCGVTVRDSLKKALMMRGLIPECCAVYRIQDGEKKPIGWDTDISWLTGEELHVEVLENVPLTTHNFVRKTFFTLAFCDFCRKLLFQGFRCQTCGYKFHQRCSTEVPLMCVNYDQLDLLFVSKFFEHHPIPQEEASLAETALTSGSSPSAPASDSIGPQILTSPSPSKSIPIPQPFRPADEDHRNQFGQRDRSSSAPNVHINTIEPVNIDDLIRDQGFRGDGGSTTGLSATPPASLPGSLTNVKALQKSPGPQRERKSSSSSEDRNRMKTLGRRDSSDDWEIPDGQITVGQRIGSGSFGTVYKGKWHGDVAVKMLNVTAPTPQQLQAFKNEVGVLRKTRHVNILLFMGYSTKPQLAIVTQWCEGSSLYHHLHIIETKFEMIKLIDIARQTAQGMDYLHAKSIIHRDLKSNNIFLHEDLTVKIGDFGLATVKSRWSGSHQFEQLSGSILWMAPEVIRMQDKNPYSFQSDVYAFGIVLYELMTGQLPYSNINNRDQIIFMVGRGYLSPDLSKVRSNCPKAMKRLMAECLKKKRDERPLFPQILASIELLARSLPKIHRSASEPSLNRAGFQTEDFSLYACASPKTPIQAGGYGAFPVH

[37] = target: Cell division cycle 5-like protein (Homo sapiens) (UniProt Q99459); further: assay method not described here
[38] = target: Succinate dehydrogenase [ubiquinone] iron-sulfur subunit, mitochondrial (Homo sapiens) (UniProt P21912); further: assay method not described here
Succinate dehydrogenase [ubiquinone] iron-sulfur subunit, mitochondrial (Homo sapiens), sequence (P21912 whole entry): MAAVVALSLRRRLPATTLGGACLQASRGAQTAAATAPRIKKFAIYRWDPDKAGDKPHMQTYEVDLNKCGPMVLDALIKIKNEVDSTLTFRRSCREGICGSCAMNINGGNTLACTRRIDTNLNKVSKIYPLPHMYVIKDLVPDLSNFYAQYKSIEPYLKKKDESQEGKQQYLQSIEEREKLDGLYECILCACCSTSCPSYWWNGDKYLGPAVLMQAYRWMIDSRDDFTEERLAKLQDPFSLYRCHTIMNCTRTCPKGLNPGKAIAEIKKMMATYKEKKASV

[39] = target: Succinate dehydrogenase [ubiquinone] flavoprotein subunit, mitochondrial (Homo sapiens) (UniProt P31040); further: assay method not described here
[40] = target: Coatomer subunit beta' (Homo sapiens) (UniProt P35606); further: assay method not described here
[41] = target: Minor histocompatibility antigen H13 (Homo sapiens) (UniProt Q8TCT9); further: assay method not described here
[42] = target: RNA cytidine acetyltransferase (Homo sapiens) (UniProt Q9H0A0); further: assay method not described here

rRNA 2'-O-methyltransferase fibrillarin (Homo sapiens), sequence (P22087 whole entry): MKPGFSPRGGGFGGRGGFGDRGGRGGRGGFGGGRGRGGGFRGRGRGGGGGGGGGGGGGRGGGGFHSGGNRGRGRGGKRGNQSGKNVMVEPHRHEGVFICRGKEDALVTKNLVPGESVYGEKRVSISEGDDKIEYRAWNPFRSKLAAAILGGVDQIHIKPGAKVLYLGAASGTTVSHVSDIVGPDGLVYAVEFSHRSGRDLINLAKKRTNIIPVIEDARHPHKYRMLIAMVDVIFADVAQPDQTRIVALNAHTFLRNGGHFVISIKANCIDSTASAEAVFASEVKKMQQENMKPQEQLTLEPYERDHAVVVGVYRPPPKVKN

**Q.** For `Cc1ccc(C(=O)Nc2cccc(C(F)(F)F)c2)cc1Nc1nc(-c2cccnc2)nc2c1cnn2C`, which ED50 [1] is on record?
**A.** 5.44 µM

**Q.** And the ED50 [2]?
**A.** 0.677 µM

**Q.** And the ED50 [3]?
**A.** 0.0497 µM

**Q.** What about the ED50 [4] of the same molecule?
**A.** 6.29 µM

**Q.** What about the ED50 [5] of the same molecule?
**A.** 11 µM

**Q.** What about the ED50 [6] of the same molecule?
**A.** 0.0263 µM

**Q.** And the ED50 [7]?
**A.** 17.5 µM

**Q.** What about the ED50 [8] of the same molecule?
**A.** 3.47 µM

**Q.** What about the ED50 [9] of the same molecule?
**A.** 0.0457 µM

**Q.** And the ED50 [10]?
**A.** 23.2 µM

**Q.** What about the ED50 [11] of the same molecule?
**A.** 0.00831 µM

**Q.** What about the ED50 [12] of the same molecule?
**A.** 6.36 µM

**Q.** And the ED50 [13]?
**A.** 4.38 µM

**Q.** And the ED50 [14]?
**A.** 0.922 µM

**Q.** And the ED50 [15]?
**A.** 0.753 µM

**Q.** And the ED50 [16]?
**A.** 0.00101 µM

**Q.** And the ED50 (Titin (Homo sapiens))?
**A.** 0.0522 µM

**Q.** What about the ED50 [17] of the same molecule?
**A.** 6.82 µM

**Q.** And the ED50 [18]?
**A.** 81.4 µM

**Q.** What about the ED50 [19] of the same molecule?
**A.** 12.2 µM

**Q.** What about the ED50 [20] of the same molecule?
**A.** 3.44 µM

**Q.** And the ED50 [21]?
**A.** 0.00162 µM

**Q.** And the ED50 [22]?
**A.** 2.99 µM

**Q.** And the ED50 [23]?
**A.** 0.0531 µM

**Q.** What about the ED50 [24] of the same molecule?
**A.** 11.6 µM

**Q.** And the ED50 [25]?
**A.** 0.00539 µM

**Q.** And the ED50 [26]?
**A.** 46.8 µM

**Q.** What about the ED50 [27] of the same molecule?
**A.** 46.5 µM

**Q.** What about the ED50 [28] of the same molecule?
**A.** 2.26 µM

**Q.** What about the ED50 [29] of the same molecule?
**A.** 0.665 µM

**Q.** What about the ED50 [30] of the same molecule?
**A.** 22.6 µM

**Q.** And the ED50 [31]?
**A.** 3.78 µM

**Q.** What about the ED50 [32] of the same molecule?
**A.** 13.4 µM

**Q.** And the ED50 [33]?
**A.** 844 µM

**Q.** What about the ED50 [34] of the same molecule?
**A.** 0.174 µM

**Q.** And the ED50 [35]?
**A.** 47.7 µM

**Q.** What about the ED50 (Myosin-9 (Homo sapiens)) of the same molecule?
**A.** 0.756 µM

**Q.** What about the IC50 (Ephrin type-A receptor 4) of the same molecule?
**A.** 0.0076 µM

**Q.** And the ED50 [36]?
**A.** 3.64 µM

**Q.** And the ED50 [37]?
**A.** 9.84 µM

**Q.** And the ED50 [38]?
**A.** 93.1 µM

**Q.** What about the ED50 [39] of the same molecule?
**A.** 0.12 µM

**Q.** What about the ED50 [40] of the same molecule?
**A.** 0.0171 µM

**Q.** What about the ED50 [41] of the same molecule?
**A.** 9.93 µM

**Q.** What about the ED50 [42] of the same molecule?
**A.** 0.000302 µM

**Q.** `Cc1ccc(C(=O)Nc2cccc(C(F)(F)F)c2)cc1Nc1nc(-c2cccnc2)nc2nn(C)cc12` was tested. Which ED50 [1] did it give?
**A.** 0.0214 µM

**Q.** And the ED50 [2]?
**A.** 0.622 µM

**Q.** And the ED50 [3]?
**A.** 0.345 µM

**Q.** And the ED50 [4]?
**A.** 9.32 µM

**Q.** What about the ED50 [5] of the same molecule?
**A.** 0.0109 µM

**Q.** What about the ED50 [6] of the same molecule?
**A.** 0.032 µM

**Q.** What about the ED50 [7] of the same molecule?
**A.** 0.0947 µM

**Q.** And the ED50 [8]?
**A.** 0.0666 µM

**Q.** What about the ED50 [9] of the same molecule?
**A.** 2500 µM

**Q.** And the ED50 [10]?
**A.** 0.0751 µM

**Q.** What about the ED50 [11] of the same molecule?
**A.** 9.99 µM

**Q.** What about the ED50 [12] of the same molecule?
**A.** 1810 µM

**Q.** And the ED50 [13]?
**A.** 4.79 µM

**Q.** And the ED50 [14]?
**A.** 2.56 µM

**Q.** And the ED50 [15]?
**A.** 1.29 µM

**Q.** What about the ED50 [16] of the same molecule?
**A.** 0.193 µM

**Q.** And the ED50 (Titin (Homo sapiens))?
**A.** 0.0126 µM

**Q.** And the ED50 [17]?
**A.** 0.842 µM

**Q.** What about the ED50 [18] of the same molecule?
**A.** 0.107 µM

**Q.** And the ED50 [19]?
**A.** 16 µM

**Q.** And the ED50 [20]?
**A.** 0.0452 µM

**Q.** And the ED50 [21]?
**A.** 0.543 µM

**Q.** What about the ED50 [22] of the same molecule?
**A.** 8.65 µM

**Q.** And the ED50 [23]?
**A.** 0.00199 µM

**Q.** And the ED50 [24]?
**A.** 0.443 µM

**Q.** And the ED50 [25]?
**A.** 0.182 µM

**Q.** And the ED50 [26]?
**A.** 0.574 µM

**Q.** And the ED50 [27]?
**A.** 26.6 µM

**Q.** And the ED50 [28]?
**A.** 3.14 µM

**Q.** What about the ED50 [29] of the same molecule?
**A.** 0.000314 µM

**Q.** And the ED50 [30]?
**A.** 0.349 µM

**Q.** And the ED50 [31]?
**A.** 0.0933 µM

**Q.** What about the ED50 [32] of the same molecule?
**A.** 0.356 µM

**Q.** What about the ED50 [33] of the same molecule?
**A.** 0.0608 µM

**Q.** And the ED50 [34]?
**A.** 1.07 µM

**Q.** And the ED50 [35]?
**A.** 0.291 µM

**Q.** And the ED50 (Myosin-9 (Homo sapiens))?
**A.** 0.0973 µM

**Q.** What about the IC50 (Ephrin type-A receptor 4) of the same molecule?
**A.** ~10 µM

**Q.** And the ED50 [36]?
**A.** 9.35 µM

**Q.** What about the ED50 [37] of the same molecule?
**A.** 0.0985 µM

**Q.** And the ED50 [38]?
**A.** 191 µM

**Q.** What about the ED50 [39] of the same molecule?
**A.** 2.36 µM

**Q.** What about the ED50 [40] of the same molecule?
**A.** 0.291 µM

**Q.** And the ED50 [41]?
**A.** 10.6 µM

**Q.** What about the ED50 [42] of the same molecule?
**A.** 0.235 µM
